Measured values taken from patent US11104690B2, “Indazole derivatives useful as inhibitors of diacylglyceride O-acyltransferase 2” (Merck Sharp & Dohme Corp., priority 2016, dated 2021).
pIC50: −log10 of the molar value.

Molecular target: Human DGAT2 (Homo sapiens (Human), UniProt Q96PD7)
Assay: DGAT2 Enzymatic Activity Assay (triolein formation, LC/MS/MS)
Type: biochemical
Details: hDGAT2 Sf-9 membrane prep; 25 μM diolein, 10 μM oleoyl-CoA; room temperature
In short: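 Triolein product, measured by LC/MS/MS as a ratio to internal standard, gave % inhibition and 4-parameter IC50. Reaction: 25 μM diolein, 10 μM oleoyl-CoA, 10 ng/μL hDGAT2 Sf-9 membrane, 100 mM Tris.Cl pH 7.0, 20 mM MgCl2, 5% ethanol, room temperature.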

Sequence of Human DGAT2 (Q96PD7 whole entry): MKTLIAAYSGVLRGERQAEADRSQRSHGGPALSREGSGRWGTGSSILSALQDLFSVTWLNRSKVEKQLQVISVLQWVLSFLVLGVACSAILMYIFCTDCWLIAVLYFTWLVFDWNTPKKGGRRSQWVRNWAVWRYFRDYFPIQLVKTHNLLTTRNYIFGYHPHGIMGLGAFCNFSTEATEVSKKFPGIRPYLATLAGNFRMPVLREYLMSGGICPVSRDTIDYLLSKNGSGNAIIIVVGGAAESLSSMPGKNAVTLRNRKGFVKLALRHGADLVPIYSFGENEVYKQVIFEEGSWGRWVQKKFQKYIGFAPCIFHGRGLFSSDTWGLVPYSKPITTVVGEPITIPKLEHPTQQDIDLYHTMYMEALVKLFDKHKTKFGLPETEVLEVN

Row | SMILES | pIC50
1 | O=C(NC1(CO)CCc2ccccc21)c1ccc2c(-c3ccccc3Cl)nn(-c3ccc(F)cc3)c2c1 (racemic) [Example 75, 3-(2-chlorophenyl)-1-(4-fluorophenyl)-N-[1-(hydroxymethyl)-2,3-dihydro-1H-inden-1-yl]-1H-indazole-6-carboxamide] | 6.45
2 | C[C@H](CS(N)(=O)=O)NC(=O)c1ccc2c(-c3ccccc3Cl)nn(-c3ccc(F)cc3)c2c1 [Example 51, 3-(2-chlorophenyl)-1-(4-fluorophenyl)-N-[(1R)-1-methyl-2-sulfamoylethyl]-1H-indazole-6-carboxamide] | 6.74
3 | CC1(NC(=O)c2ccc3c(-c4cncc(C#N)c4)nn(-c4ccc(F)cc4)c3c2)CCS(=O)(=O)C1 (single isomer, unassigned) [Example 146-A, 3-(5-cyanopyridin-3-yl)-1-(4-fluorophenyl)-N-(3-methyl-1,1-dioxidotetrahydrothiophen-3-yl)-1H-indazole-6-carboxamide] | 7.20
4 | CC(NC(=O)c1ccc2c(-c3ccccc3Cl)nn(-c3ccc(F)cc3)c2c1)c1cn(C(=O)OC(C)(C)C)cn1 (racemic) [Example 7, tert-butyl 4-[1-({[3-(2-chlorophenyl)-1-(4-fluorophenyl)-1H-indazol-6-yl]carbonyl}amino)ethyl]-1H-imidazole-1-carboxylate] | 6.79
5 | CC(C)(CO)NC(=O)c1ccc2c(-c3ccccc3Cl)nn(-c3ccc(F)cc3)c2c1 [Example 42, 3-(2-chlorophenyl)-1-(4-fluorophenyl)-N-(2-hydroxy-1,1-dimethylethyl)-1H-indazole-6-carboxamide] | 7.59
6 | O=C(N[C@H]1c2ccccc2OC[C@H]1O)c1ccc2c(-c3ccccc3Cl)nn(-c3ccc(F)cc3)c2c1 [Example 71, 3-(2-chlorophenyl)-1-(4-fluorophenyl)-N-[(3S,4S)-3-hydroxy-3,4-dihydro-2H-chromen-4-yl]-1H-indazole-6-carboxamide] | 6.28
7 | COc1cc(-c2nn(-c3ccc(F)cc3)c3cc(C(=O)NC4(C)CCS(=O)(=O)C4)ccc23)ccn1 (single isomer, unassigned) [Example 140-A, 1-(4-fluorophenyl)-3-(2-methoxypyridin-4-yl)-N-(3-methyl-1,1-dioxidotetrahydrothiophen-3-yl)-1H-indazole-6-carboxamide] | 6.34
8 | O=C(NCc1cnc(C(F)(F)F)nc1)c1ccc2c(-c3ccccc3Cl)nn(-c3ccc(F)cc3)c2c1 [Example 49, 3-(2-chlorophenyl)-1-(4-fluorophenyl)-N-{[2-(trifluoromethyl)pyrimidin-5-yl]methyl}-1H-indazole-6-carboxamide] | 7.10
9 | CC(C)(C)OC(=O)N1CC[C@H](NC(=O)c2ccc3c(-c4ccccc4Cl)nn(-c4ccc(F)cc4)c3c2)C1 [Example 100, tert-butyl (3S)-3-({[3-(2-chlorophenyl)-1-(4-fluorophenyl)-1H-indazol-6-yl]carbonyl}amino)pyrrolidine-1-carboxylate] | 7.92
10 | CC1(NC(=O)c2ccc3c(-c4cncc(F)c4)nn(-c4ccc(F)cc4)c3c2)CCS(=O)(=O)C1 (single isomer, unassigned) [Example 153-A, 1-(4-fluorophenyl)-3-(5-fluoropyridin-3-yl)-N-(3-methyl-1,1-dioxidotetrahydrothiophen-3-yl)-1H-indazole-6-carboxamide] | 7.05
11 | O=C(NC1CCNC1=O)c1ccc2c(-c3ccccc3Cl)nn(-c3ccc(F)cc3)c2c1 (racemic) [Example 52, 3-(2-chlorophenyl)-1-(4-fluorophenyl)-N-(2-oxopyrrolidin-3-yl)-1H-indazole-6-carboxamide] | 6.38
12 | CC(CO)(CO)NC(=O)c1ccc2c(-c3ccccc3Cl)nn(-c3ccc(F)cc3)c2c1 [Example 46, 3-(2-chlorophenyl)-1-(4-fluorophenyl)-N-[2-hydroxy-1-(hydroxymethyl)-1-methylethyl]-1H-indazole-6-carboxamide] | 7.31
13 | O=C(Nc1ccc(C(F)(F)F)nc1)c1ccc2c(-c3ccccc3Cl)nn(-c3ccc(F)cc3)c2c1 [Example 10, 3-(2-chlorophenyl)-1-(4-fluorophenyl)-N-[6-(trifluoromethyl)pyridin-3-yl]-1H-indazole-6-carboxamide] | 6.22
14 | CC1(NC(=O)c2ccc3c(-c4ccccc4Cl)nn(-c4ccc(F)cc4)c3c2)CCS(=O)(=O)C1 (single isomer, unassigned) [Example 1-A, 3-(2-Chlorophenyl)-1-(4-fluorophenyl)-N-(3-methyl-1,1-dioxidotetrahydrothiophen-3-yl)-1H-indazole-6-carboxamide] | 8.35
15 | C[C@@H](NC(=O)c1ccc2c(-c3ccccc3Cl)nn(-c3ccc(F)cc3)c2c1)c1ccc(C(F)(F)F)nc1 [Example 11, 3-(2-chlorophenyl)-1-(4-fluorophenyl)-N-{(1R)-1-[6-(trifluoromethyl)pyridin-3-yl]ethyl}-1H-indazole-6-carboxamide] | 7.42
16 | CC1(NC(=O)c2ccc3c(-c4ccccc4Cl)nn(-c4ccc(F)cn4)c3c2)CCS(=O)(=O)C1 (single isomer, unassigned) [Example 172-B, 3-(2-chlorophenyl)-1-(5-fluoropyridin-2-yl)-N-(3-methyl-1,1-dioxidotetrahydrothiophen-3-yl)-1H-indazole-6-carboxamide] | 7.25
17 | O=C(N[C@H]1CCC[C@@H]1O)c1ccc2c(-c3ccccc3Cl)nn(-c3ccc(F)cc3)c2c1 [Example 97, 3-(2-chlorophenyl)-1-(4-fluorophenyl)-N-[(1S,2S)-2-hydroxycyclopentyl]-1H-indazole-6-carboxamide] | 6.81
18 | O=C(N[C@@H]1CS(=O)(=O)C[C@H]1O)c1ccc2c(-c3ccccc3Cl)nn(-c3ccc(F)cc3)c2c1 [Example 9, 3-(2-chlorophenyl)-1-(4-fluorophenyl)-N-[(3S,4S)-4-hydroxy-1,1-dioxidotetrahydrothiophen-3-yl]-1H-indazole-6-carboxamide] | 6.27
19 | CC(C)(O)C1(NC(=O)c2ccc3c(-c4ccccc4Cl)nn(-c4ccc(F)cc4)c3c2)CCOCC1 [Example 70, 3-(2-chlorophenyl)-1-(4-fluorophenyl)-N-[4-(1-hydroxy-1-methylethyl)tetrahydro-2H-pyran-4-yl]-1H-indazole-6-carboxamide] | 6.22
20 | CC1(NC(=O)c2ccc3c(-c4cc(C(N)=O)ccc4Cl)nn(-c4ccc(F)cc4)c3c2)CCS(=O)(=O)C1 (single isomer, unassigned) [Example 121-A, 3-(5-carbamoyl-2-chlorophenyl)-1-(4-fluorophenyl)-N-(3-methyl-1,1-dioxidotetrahydrothiophen-3-yl)-1H-indazole-6-carboxamide] | 6.88
21 | COC[C@H](NC(=O)c1ccc2c(-c3ccccc3Cl)nn(-c3ccc(F)cc3)c2c1)[C@@H](O)c1ccccc1 [Example 74, 3-(2-chlorophenyl)-1-(4-fluorophenyl)-N-[(1S,2S)-2-hydroxy-1-(methoxymethyl)-2-phenylethyl]-1H-indazole-6-carboxamide] | 7.80
22 | CC1(NC(=O)c2ccc3c(-c4ccccc4Cl)nn(-c4ccccn4)c3c2)CCS(=O)(=O)C1 (single isomer, unassigned) [Example 174-A, 3-(2-chlorophenyl)-N-(3-methyl-1,1-dioxidotetrahydrothiophen-3-yl)-1-pyridin-2-yl-1H-indazole-6-carboxamide] | 7.15
